From the NIST ThermoML archive (doi:10.1016/j.jct.2018.02.022)
Several values for one entry are separate records, joined by “and”; a condition that tells them apart may be missing. Identical values can stand only once.

Experiment: xn = mol fraction of the nth substance listed
Conditions: 92.3 kPa, Liquid; for viscosity: Concentric cylinders viscometry; for speed of sound: Frequency=3 MHz, Single path-length method; for mass density: Vibrating tube method

CCO [ethanol] + O
Conditions | mass density, 293.15 K | mass density, 298.15 K | speed of sound, 293.15 K [m/s] | speed of sound, 298.15 K [m/s] | viscosity, 293.15 K [mPa·s] | viscosity, 298.15 K [mPa·s]
x1 = 0.0024 | 997.039 kg/m3 | 995.871 kg/m3 | 1487.7 | 1501.5 | – | –
x1 = 0.0201 | 989.54 kg/m3 | 988.31 kg/m3 | – | – | 1.247 | 1.098
x1 = 0.0202 | 989.382 kg/m3 | 988.159 kg/m3 | 1522.5 | 1532.7 | – | –
x1 = 0.0295 | 985.977 kg/m3 | 984.669 kg/m3 | 1540 | 1548.2 | – | –
x1 = 0.0366 | 983.574 kg/m3 | 982.196 kg/m3 | 1553 | 1559.6 | – | –
x1 = 0.0408 | 982.27 kg/m3 | 980.85 kg/m3 | – | – | 1.529 | 1.336
x1 = 0.0497 | 979.54 kg/m3 | 977.99 kg/m3 | – | – | 1.648 | 1.432
x1 = 0.0513 | 978.913 kg/m3 | 977.287 kg/m3 | 1578 | 1581.3 | – | –
x1 = 0.06 | 976.51 kg/m3 and 976.452 kg/m3 | 974.31 kg/m3 and 974.729 kg/m3 | 1590.8 | 1592.1 | 1.821 | 1.551
x1 = 0.0707 | 973.538 kg/m3 | 971.631 kg/m3 | 1604.2 | 1603.2 | – | –
x1 = 0.0796 | 971.24 kg/m3 | 969.17 kg/m3 | – | – | 2.045 | 1.748
x1 = 0.0801 | 971.049 kg/m3 | 968.969 kg/m3 | 1613.8 | 1610.7 | – | –
x1 = 0.0904 | 968.313 kg/m3 | 966.039 kg/m3 | 1621.5 | 1616.4 | – | –
x1 = 0.0997 | 965.87 kg/m3 | 963.419 kg/m3 | 1625.7 | 1619 | – | –
x1 = 0.1004 | 963.75 kg/m3 | 961.4 kg/m3 | – | – | 2.311 | 1.947
x1 = 0.1294 | 957.918 kg/m3 | 954.963 kg/m3 | 1623.8 | 1613.3 | – | –
x1 = 0.1497 | 952.184 kg/m3 | 948.951 kg/m3 | 1611.9 | 1600.1 | – | –
x1 = 0.1499 | 951.92 kg/m3 | 948.9 kg/m3 | – | – | 2.72 | 2.242
x1 = 0.1984 | 935.19 kg/m3 | 931.84 kg/m3 | – | – | 2.857 | 2.371
x1 = 0.2008 | 937.088 kg/m3 | 933.41 kg/m3 | 1566.6 | 1553.7 | – | –
x1 = 0.2499 | 922.7 kg/m3 | 918.95 kg/m3 | – | – | 2.864 | 2.429
x1 = 0.2503 | 922.612 kg/m3 | 918.708 kg/m3 | 1520.2 | 1507 | – | –
x1 = 0.2998 | 908.897 kg/m3 | 904.858 kg/m3 | 1478.2 | 1464.5 | – | –
x1 = 0.3016 | 908.77 kg/m3 | 904.86 kg/m3 | – | – | 2.793 | 2.339
x1 = 0.3499 | 896.37 kg/m3 | 892.28 kg/m3 | – | – | 2.681 | 2.263
x1 = 0.3507 | 895.841 kg/m3 | 891.711 kg/m3 | 1440.4 | 1426.2 | – | –
x1 = 0.399 | 884.54 kg/m3 | 880.34 kg/m3 | – | – | 2.55 | 2.17
x1 = 0.3992 | 884.433 kg/m3 | 880.239 kg/m3 | 1408.9 | 1394.2 | – | –
x1 = 0.4495 | 873.57 kg/m3 | 869.34 kg/m3 | – | – | 2.405 | 2.066
x1 = 0.4514 | 873.258 kg/m3 | 869.012 kg/m3 | 1379 | 1363.9 | – | –
x1 = 0.4989 | 864.28 kg/m3 | 860.04 kg/m3 | – | – | 2.291 | 1.956
x1 = 0.5002 | 863.248 kg/m3 | 858.963 kg/m3 | 1353.5 | 1337.9 | – | –
x1 = 0.5494 | 854.117 kg/m3 | 849.801 kg/m3 | 1330.4 | 1314.5 | – | –
x1 = 0.5495 | 854.95 kg/m3 | 850.72 kg/m3 | – | – | 2.177 | 1.88
x1 = 0.6018 | 845.002 kg/m3 | 840.665 kg/m3 | 1307.8 | 1291.5 | – | –
x1 = 0.6067 | 844.7 kg/m3 | 840.19 kg/m3 | – | – | 1.997 | 1.744
x1 = 0.6503 | 837.27 kg/m3 and 837.196 kg/m3 | 832.95 kg/m3 and 832.839 kg/m3 | 1288.5 | 1271.8 | 1.895 | 1.659
x1 = 0.6956 | 830.42 kg/m3 | 826.05 kg/m3 | – | – | 1.788 | 1.572
x1 = 0.7006 | 829.434 kg/m3 | 825.07 kg/m3 | 1269.1 | 1252.3 | – | –
x1 = 0.7355 | 824.262 kg/m3 | 819.907 kg/m3 | 1256 | 1239.1 | – | –
x1 = 0.75 | 822.4 kg/m3 | 818.03 kg/m3 | – | – | 1.68 | 1.483
x1 = 0.7843 | 817.86 kg/m3 | 813.49 kg/m3 | – | – | 1.612 | 1.43
x1 = 0.7965 | 815.831 kg/m3 | 811.475 kg/m3 | 1234.1 | 1217 | – | –
x1 = 0.8433 | 809.567 kg/m3 | 805.219 kg/m3 | 1217.4 | 1200.2 | – | –
x1 = 0.8475 | 809.97 kg/m3 | 805.63 kg/m3 | – | – | 1.518 | 1.342
x1 = 0.8864 | 804.22 kg/m3 | 799.93 kg/m3 | – | – | 1.42 | 1.271
x1 = 0.892 | 803.132 kg/m3 | 798.808 kg/m3 | 1199.7 | 1182.5 | – | –
x1 = 0.9093 | 800.938 kg/m3 | 796.615 kg/m3 | 1193.5 | 1176.3 | – | –
x1 = 0.9207 | 799.51 kg/m3 | 795.193 kg/m3 | 1189.5 | 1172.3 | – | –
x1 = 0.929 | 798.49 kg/m3 | 794.19 kg/m3 | – | – | 1.341 | 1.204
x1 = 0.9307 | 798.225 kg/m3 | 793.91 kg/m3 | 1185.8 | 1168.6 | – | –
x1 = 0.9398 | 797.133 kg/m3 | 792.821 kg/m3 | 1182.6 | 1165.4 | – | –
x1 = 0.9483 | 796.043 kg/m3 | 791.735 kg/m3 | 1179.4 | 1162.3 | – | –
x1 = 0.9603 | 794.596 kg/m3 | 790.291 kg/m3 | 1175.3 | 1158.1 | – | –
x1 = 0.9702 | 793.374 kg/m3 | 789.073 kg/m3 | 1171.7 | 1154.5 | – | –
x1 = 0.9801 | 792.038 kg/m3 | 787.741 kg/m3 | 1168.5 | 1151.3 | – | –
x1 = 0.9895 | 791.076 kg/m3 | 786.779 kg/m3 | 1165 | 1147.8 | – | –
x1 = 1 | 789.547 kg/m3 | 785.26 kg/m3 | 1160.7 | 1143.5 | 1.202 | 1.091
